Experimental data taken from ChEMBL document CHEMBL1201862, “PubChem BioAssay data set” (2004).
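Where inhibition never reached the appropriate level, the endpoint shown equals the highest concentration tested. Otherwise, values were interpolated linearly from a five-concentration, 48-hour dose response in 96-well plates. GI50 is the concentration that inhibits growth by half.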 Calls of active or inactive are those of the source. No stated cut-off is given here; in the data, active = GI50 up to about 1.1 µM and inactive = higher.

Legend:
Assay in all cases: DTP human tumour cell line panel, 48 h
SF-295 = test system: SF-295
COLO 205 = test system: COLO 205
SK-MEL-28 = test system: SK-MEL-28
IGROV-1 = test system: IGROV-1
MOLT-4 = test system: MOLT-4
HOP-62 = test system: HOP-62
HCT-116 = test system: HCT-116
SN12C = test system: SN12C
HT-29 = test system: HT-29
NCI-H522 = test system: NCI-H522
RPMI-8226 = test system: RPMI-8226
K562 = test system: K562
OVCAR-8 = test system: OVCAR-8
CCRF-CEM = test system: CCRF-CEM
UO-31 = test system: UO-31
SF-539 = test system: SF-539
RXF 393 = test system: RXF 393
NCI/ADR-RES = test system: NCI/ADR-RES

| SMILES | GI50 (SF-295) | GI50 (COLO 205) | GI50 (SK-MEL-28) | GI50 (IGROV-1) | GI50 (MOLT-4) | GI50 (HOP-62) | GI50 (HCT-116) | GI50 (SN12C) | GI50 (HT-29) | GI50 (NCI-H522) | GI50 (RPMI-8226) | GI50 (K562) | GI50 (OVCAR-8) | GI50 (CCRF-CEM) | GI50 (UO-31) | GI50 (SF-539) | GI50 (RXF 393) | GI50 (NCI/ADR-RES) |
| --- | --- | --- | --- | --- | --- | --- | --- | --- | --- | --- | --- | --- | --- | --- | --- | --- | --- | --- |
| CC1(CCC(=O)OC2CCCCC2)OCCO1 | > 100 µM (inactive) | > 100 µM (inactive) | > 100 µM (inactive) | > 100 µM (inactive) | > 100 µM (inactive) | > 100 µM (inactive) | > 100 µM (inactive) | > 100 µM (inactive) | > 100 µM (inactive) | > 100 µM (inactive) | > 100 µM (inactive) | > 100 µM (inactive) | > 100 µM (inactive) | > 100 µM (inactive) | > 100 µM (inactive) | > 100 µM (inactive) | > 100 µM (inactive) | > 100 µM (inactive) |
| Oc1ccc(C[C@@H]2CN[C@H](Cc3ccc(O)c(Br)c3)CN2)cc1 | > 100 µM (inactive) | > 100 µM (inactive) | > 100 µM (inactive) | > 100 µM (inactive) | > 100 µM (inactive) | > 100 µM (inactive) | > 100 µM (inactive) | > 100 µM (inactive) | > 100 µM (inactive) | > 100 µM (inactive) |  |  | > 100 µM (inactive) | > 100 µM (inactive) | > 100 µM (inactive) | > 100 µM (inactive) | 84.3 µM (inactive) | > 100 µM (inactive) |
| Nc1ncc(Br)c(NCC2(CO)CCC2)n1 | 97.1 µM (inactive) | > 100 µM (inactive) | > 100 µM (inactive) | > 100 µM (inactive) | 80 µM (inactive) | > 100 µM (inactive) | > 100 µM (inactive) | > 100 µM (inactive) | > 100 µM (inactive) | 92 µM (inactive) | 42.8 µM (inactive) | > 100 µM (inactive) | > 100 µM (inactive) | > 100 µM (inactive) | 79.6 µM (inactive) | > 100 µM (inactive) | > 100 µM (inactive) | 95.5 µM (inactive) |
| CC(N1CCOCC1)C(O)(c1ccccc1)c1ccccn1 (stereo not drawn) | > 100 µM (inactive) | > 100 µM (inactive) | > 100 µM (inactive) | > 100 µM (inactive) |  | > 100 µM (inactive) | > 100 µM (inactive) | > 100 µM (inactive) | > 100 µM (inactive) | > 100 µM (inactive) | > 100 µM (inactive) | > 100 µM (inactive) | > 100 µM (inactive) |  | > 100 µM (inactive) | > 100 µM (inactive) | > 100 µM (inactive) | > 100 µM (inactive) |
| CC(C)COC(=O)OC(=O)c1ccc(N(C)Cc2cnc3nc(N)nc(N)c3n2)cc1 | 15.7 µM (inactive) | > 75.3 µM (inactive) | > 86.1 µM (inactive) | 8.3 µM (inactive) | 4.31 µM (inactive) | 59.7 µM (inactive) | 2.43 µM (inactive) | > 100 µM (inactive) | 26.9 µM (inactive) | 23.1 µM (inactive) | > 80.9 µM (inactive) | 0.466 µM (active) | 6.12 µM (inactive) | 3.69 µM (inactive) | > 51.3 µM (inactive) | 10.8 µM (inactive) | 16.1 µM (inactive) | > 36.3 µM (inactive) |
| C[C@H](CO)C1=CC(C#C[Si](C)(C)C)N(C(=O)Oc2ccccc2)c2ccccc21 (stereo partly drawn) | 3.86 µM (inactive) | 5.6 µM (inactive) | 16.6 µM (inactive) | 12.4 µM (inactive) | 9.12 µM (inactive) | 6.05 µM (inactive) | 10.8 µM (inactive) | 12 µM (inactive) | 4.92 µM (inactive) | 3.94 µM (inactive) | 20 µM (inactive) | 4.54 µM (inactive) | 17.7 µM (inactive) | 10.9 µM (inactive) | 9.27 µM (inactive) | 16 µM (inactive) | 10.2 µM (inactive) | 3.18 µM (inactive) |
| CC(C)(C)/C(O)=C\c1nc2cc(C(F)(F)F)ccc2[nH]c1=O | > 100 µM (inactive) | > 100 µM (inactive) | > 100 µM (inactive) | > 100 µM (inactive) | > 10 µM (inactive) | > 100 µM (inactive) | > 100 µM (inactive) | > 100 µM (inactive) | 47.5 µM (inactive) | > 100 µM (inactive) | > 100 µM (inactive) | 27.9 µM (inactive) | > 100 µM (inactive) | 13.3 µM (inactive) | > 100 µM (inactive) |  | > 100 µM (inactive) | > 100 µM (inactive) |
| O=NN1C(c2ccccc2)CC(=NO)CC1c1ccccc1 (stereo not drawn) | > 100 µM (inactive) | > 100 µM (inactive) | > 100 µM (inactive) | > 100 µM (inactive) | 46.3 µM (inactive) | > 100 µM (inactive) | 71.1 µM (inactive) | > 100 µM (inactive) | 20.5 µM (inactive) | > 100 µM (inactive) | 68.1 µM (inactive) | 43.8 µM (inactive) | > 100 µM (inactive) |  | > 100 µM (inactive) | > 100 µM (inactive) | > 100 µM (inactive) | > 100 µM (inactive) |
